Laboratory results taken from patent US6566337B1, “Compounds with growth hormone releasing properties” (Novo Nordisk A/S, priority 1998, dated 2003).
Square brackets hold non-standard residues; d marks the D form. Peptide text beside a SMILES is read from it. d2Nal = N[C@H](Cc1ccc2ccccc2c1)C(=O)O

Legend:
[1] = Pharmacokinetics in fasted Beagle dogs; assay type: in vivo; settings: dog, plasma; for half-life: in 5% glucose solution, non-compartmental, read-out: Plasma half-life T½ (converted); for bioavailability: intravenous and oral administration in 5% glucose solution, read-out: Oral bioavailability Fpo
Experimental: The pharmakokinetic data were obtained by following procedure:
The pharmacokinetics of the test compounds were investigated in fasted Beagle dogs.
Intravenous and oral administration of the test compound, in 5% glucose solution, was separated by a one weeks washout.
Blood samples were collected immediately before drug administration (time zero) and than 0.08, 0.25, 0.50, 0.75, 1.0, 1.5, 2.0, 3.0, 4.0, 5.0, and 6.0 hours after administration.
The plasma samples were stored frozen (<−18° C.) pending analysis.
An HPLC method with solid phase extraction and UV detection was used for the quantification of the compound in plasma.
The pharmacokinetic parameters for compounds were calculated by non-compartmental methods using the PC based pharmacokinetic software WinNonlin, version 1.1 (Scientific Consulting Inc., Apex, N.C., USA).

carboxypeptidase Y and B = experiment: Metabolic stability in carboxypeptidase mix (ESMS, SIM signal); settings: carboxypeptidase Y and B in 50 mM ammoniumacetate pH 4.5, 37° C., 24 h, decrease in SIM signal
Experimental: (§1) Compounds is dissolved at a concentration of 1 mg/ml in water. 25 ml of this solution is added to 175 ml of the respective enzyme-solution (resulting in an enzyme:substrate ratio (w/w) of approximately 1:5). The solution is left at 37° C. overnight. 10 ml of the various degradation solutions is analyzed against a corresponding zero-sample using flow injection electrospray mass spectrometry (ESMS) with selected ion monitoring of the molecular ion. If the signal has decreased more than 20% compared to the zero-sample, the remainder of the solution is analyzed by HPLC and mass spectrometry in order to identify the extent and site(s) of degradation precisely.
Carboxypeptidase mix: carboxypeptidase Y and B in 50 mM ammoniumacetate pH 4.5 (all concentrations 0.025 mg/ml).
(§2) Mass spectrometric analysis was performed using two different mass spectrometers. A Sciex API III triple quadrupole LC-MS instrument (Sciex instruments, Thornhill, Ontario) equipped with an electrospray ion-source and a Bio-Ion 20 time-of-flight Plasma Desorption instrument (Bio-Ion Nordic AB, Uppsala, Sweden).
(§3) Quantification of the compounds (before and after degradation) was done on the API III instrument using single ion monitoring of the molecular ion in question with flow injection of the analyte. […]

[2] = test system: trypsin, chymotrypsin and elastase; experiment: Metabolic stability in pancreatic enzyme mix (ESMS, SIM signal); settings: chymotrypsin and elastase in 100 mM ammoniumbicarbonate pH 8.0, 37° C., 24 h, decrease in SIM signal
Experimental: as §1
Pancreatic enzyme mix: trypsin, chymotrypsin and elastase in 100 mM ammoniumbicarbonate pH 8.0 (all concentrations 0.025 mg/ml).
as §2, §3

Row | SMILES | half-life [1] [min] | bioavailability [1] [%] | Carboxy-peptidase mix (stability) (carboxypeptidase Y and B) | Pan. enzyme mix (stability) [2]
1 | CN(C(=O)/C=C/CC(C)(C)N)[C@H](Cc1ccc2ccccc2c1)C(=O)N(C)[C@H](Cc1ccccc1)C(=O)NCCc1ccncc1 [Example 408 from WO 9723508] | 233 | 26 |  | 
2 | CN(CCc1ccccn1)C(=O)[C@@H](Cc1ccccc1)N(C)C(=O)[C@@H](Cc1ccc2ccccc2c1)N(C)C(=O)/C=C/CC(C)(C)N [Example 1, (2E)-5-Amino-5-methylhex-2-enoic acid N-methyl-N-[(1R)-1-(N-methyl-N-{(1R)-1-[N-methyl-N-(2-(2-pyridinyl)ethyl)carbamoyl]-2-phenylethyl}carbamoyl)-2-(2-naphthyl)ethyl]amide] | 120 | 34 |  | 
3 | C[C@H](NC(=O)[C@@H](Cc1c[nH]c2ccccc12)NC(=O)[C@@H](N)Cc1c[nH]cn1)C(=O)N[C@@H](Cc1c[nH]c2ccccc12)C(=O)N[C@H](Cc1ccccc1)C(=O)N[C@@H](CCCCN)C(N)=O [GHRP-6] (H-H[dW]AW[dF]K-NH2) |  |  | − (Unstable (more than 20% decrease in SIM signal after 24 h in degradation solution)) | − (Unstable (more than 20% decrease in SIM signal after 24 h in degradation solution))
4 | C[C@H](NC(=O)[C@@H](Cc1ccc2ccccc2c1)NC(=O)[C@@H](C)N)C(=O)N[C@@H](Cc1c[nH]c2ccccc12)C(=O)N[C@H](Cc1ccccc1)C(=O)N[C@@H](CCCCN)C(N)=O [GHRP-2] (H-[dA][d2Nal]AW[dF]K-NH2) |  |  | − (Unstable (more than 20% decrease in SIM signal after 24 h in degradation solution)) | − (Unstable (more than 20% decrease in SIM signal after 24 h in degradation solution))
